Values quoted from earlier work, collected in PubChem BioAssay AID1259410 (Chemical Carcinogenesis Research Information System (CCRIS), 2018).

System: rodent tumor promotion studies, tumor incidence
Test: CCRIS tumor promotion studies
Conditions: Route [Carcinogen]: DERMAL, Route [Promoter]: DERMAL, Species: MOUSE

In the case of `CCCCCCCCCCCCCC(=O)O[C@@H]1[C@@H](C)[C@@]2(O)[C@@H](C=C(CO)C[C@]3(O)C(=O)C(C)=C[C@@H]23)[C@@H]2C(C)(C)[C@]12OC(C)=O`, the outcome (Carcinogen: 7,12-DIMETHYLBENZ[A]ANTHRACENE, 57-97-6, Doses [Carcinogen]: 200 NMOL IN 100 µL ACETONE ONCE, Doses [Promoter]: 0, 5 NMOL IN 100 µL ACETONE 2/WK FOR 20 WK BEGINNING 1 WK POST CARCINOGEN DOSE (STUDY DURATION: 21 WK), Strain/Sex: CD-1/FEMALE) is listed as “skin: papilloma”, the outcome (Carcinogen: 7-FLUOROBENZO[B]FLUORANTHENE, 89883-22-7, Doses [Carcinogen]: 10, 40, 120, 400 NMOL (TOTAL DOSE) APPLIED 1/2 D FOR 10 SUBDOSES, Doses [Carcinogen]: 10, 40, 120, 400 NMOL (TOTAL DOSE) APPLIED 1/2 D FOR 10 SUBDOSES, Doses [Promoter]: 0, 2.5 UG IN 100 µL ACETONE 3/WK FOR 20 WK BEGINNING 10 D POST CARCINOGEN TREATMENT (STUDY DURATION: 22 WK), Strain/Sex: CRL:CD-1/FEMALE) is listed as “skin: tumor” and the outcome (Carcinogen: 7-METHYLBENZ[A]ANTHRACENE-3,4-DIOL, 175614-82-1, Doses [Carcinogen]: 200, 400 NMOL ONCE, Doses [Promoter]: 0, 3.4 NMOL 2/WK FOR 19 WK BEGINNING 2 WK POST CARCINOGEN DOSE (STUDY DURATION: 21 WK), Strain/Sex: SENCAR/FEMALE) is listed as “skin: papilloma”. For the same molecule, the outcome (Carcinogen: 8-METHYLBENZO[K]FLUORANTHENE, 95741-54-1, Doses [Carcinogen]: 4 UMOL (TOTAL DOSE) ADMINISTERED IN 10 SUBDOSES 1/2 D, Doses [Promoter]: 2.5 UG IN 0.1 ML ACETONE 3/WK FOR 30 WK BEGINNING 10 D POST CARCINOGEN TREATMENT (STUDY DURATION: 33 WK), Strain/Sex: CRL:CD-1/FEMALE) was “skin: tumor”, the outcome (Carcinogen: 9-FLUORO-7,12-DIMETHYLBENZ[A]ANTHRACENE-3,4-DIOL, 175614-88-7, Doses [Carcinogen]: 4, 10 NMOL ONCE, Doses [Promoter]: 0, 3.4 NMOL 2/WK FOR 19 WK BEGINNING 2 WK POST CARCINOGEN DOSE (STUDY DURATION: 21 WK), Strain/Sex: SENCAR/FEMALE) was “skin: papilloma” and the outcome (Carcinogen: 9-FLUORO-7-METHYLBENZ[A]ANTHRACENE-3,4-DIOL, 175614-83-2, Doses [Carcinogen]: 200, 400 NMOL ONCE, Doses [Promoter]: 0, 3.4 NMOL 2/WK FOR 19 WK BEGINNING 2 WK POST CARCINOGEN DOSE (STUDY DURATION: 21 WK), Strain/Sex: SENCAR/FEMALE) was “skin: papilloma”. For the same molecule, the outcome (Carcinogen: 9-FLUORO-12-METHYLBENZ[A]ANTHRACENE-3,4-DIOL, 175614-86-5, Doses [Carcinogen]: 200, 400 NMOL ONCE, Doses [Promoter]: 0, 3.4 NMOL 2/WK FOR 19 WK BEGINNING 2 WK POST CARCINOGEN DOSE (STUDY DURATION: 21 WK), Strain/Sex: SENCAR/FEMALE) was “skin: papilloma”, the outcome (Carcinogen: 9-METHYLBENZO[K]FLUORANTHENE, 95741-55-2, Doses [Carcinogen]: 4 UMOL (TOTAL DOSE) ADMINISTERED IN 10 SUBDOSES 1/2 D, Doses [Promoter]: 2.5 UG IN 0.1 ML ACETONE 3/WK FOR 30 WK BEGINNING 10 D POST CARCINOGEN TREATMENT (STUDY DURATION: 33 WK), Strain/Sex: CRL:CD-1/FEMALE) was “skin: tumor” and the outcome (Carcinogen: 10-FLUORO-7,12-DIMETHYLBENZ[A]ANTHRACENE-3,4-DIOL, 175614-89-8, Doses [Carcinogen]: 4, 10 NMOL ONCE, Doses [Promoter]: 0, 3.4 NMOL 2/WK FOR 19 WK BEGINNING 2 WK POST CARCINOGEN DOSE (STUDY DURATION: 21 WK), Strain/Sex: SENCAR/FEMALE) was “skin: papilloma”. For the same molecule, the outcome (Carcinogen: 10-FLUORO-7-METHYLBENZ[A]ANTHRACENE-3,4-DIOL, 175614-84-3, Doses [Carcinogen]: 200, 400 NMOL ONCE, Doses [Promoter]: 0, 3.4 NMOL 2/WK FOR 19 WK BEGINNING 2 WK POST CARCINOGEN DOSE (STUDY DURATION: 21 WK), Strain/Sex: SENCAR/FEMALE) was “skin: papilloma”, the outcome (Carcinogen: 10-FLUORO-12-METHYLBENZ[A]ANTHRACENE-3,4-DIOL, 175614-87-6, Doses [Carcinogen]: 200, 400 NMOL ONCE, Doses [Promoter]: 0, 3.4 NMOL 2/WK FOR 19 WK BEGINNING 2 WK POST CARCINOGEN DOSE (STUDY DURATION: 21 WK), Strain/Sex: SENCAR/FEMALE) was “skin: papilloma” and the outcome (Carcinogen: 10-FLUOROBENZO[J]FLUORANTHENE, 129286-37-9, Doses [Carcinogen]: 1, 2 UMOL (TOTAL DOSE) ADMINISTERED IN SUBDOSES 1/2 D, Doses [Promoter]: 2.5 UG IN 100 µL ACETONE 3/WK FOR 20 WK BEGINNING 10 D POST LAST CARCINOGEN DOSE (STUDY DURATION: 27 WK), Strain/Sex: CD-1/FEMALE) was “skin: tumor”. For the same molecule, the outcome (Carcinogen: 12-METHYLBENZ[A]ANTHRACENE-3,4-DIOL, 175614-85-4, Doses [Carcinogen]: 200, 400 NMOL ONCE, Doses [Promoter]: 0, 3.4 NMOL 2/WK FOR 19 WK BEGINNING 2 WK POST CARCINOGEN DOSE (STUDY DURATION: 21 WK), Strain/Sex: SENCAR/FEMALE) was “skin: papilloma”.
